89 compounds from a melting point compilation (Tetko et al.; mined from patent text by program, amines drawn as free bases though some values may be those of a salt) can be followed below.

Where only a bound is given, the exact number is not on record here.

Take `Cc1nn(CC(O)c2ccc(Cl)cc2)c(=O)n1-c1ccc(N2CCN(c3ccc(O)cc3)CC2)cc1` (single isomer, unassigned; (+)): the melting point was 249 °C.
The compound `CCOC(=O)c1cnc2c(NC(=O)c3c(Cl)cccc3Cl)cccc2c1CBr` returned a melting point of 199 °C.
Under `O=C(Cc1ccccc1)Nc1cc(-c2ccc(Cl)cc2)[nH]n1` stands 222 to 224 °C.
The result for `CCS(=O)(=O)c1nsc(NC(=O)N(C)C)c1C#N` reads 188 to 189 °C; that for `COc1ccc(-c2ccc(C(=O)Nc3cc4ncc(CN5CCCC5)cc4cc3C)cc2F)cc1`, 165 to 167 °C; that for `COC(=O)C1Cc2c([nH]c3ccccc23)C(c2cc3ccccc3o2)N1` (centres undefined), 195 to 198 °C.
`CNC(=O)c1cccc(CN2CCN(c3nc(C)c(-c4cc(C)n[nH]4)s3)C2=O)c1`: the melting point was in the range of 259 to 261 °C.
`N#CCc1ccc2nc(-c3ccccc3)oc2c1` registered a melting point of 144 °C.
The compound `CC(C)c1ccccc1NC#N` returned a melting point of 75 to 77 °C.
Turning to `O=C(NCCn1cc(C(=O)OCc2ccccc2)ccc1=O)c1cccnc1`, the melting point was in the range of 154 to 155 °C.
Under `COc1ccc(C2=NN(C3CCN(C(=O)c4cccnc4)CC3)C(=O)CC2)cc1OC` stands 162 to 164 °C.
In the case of `CCOC(=O)c1cn2c(n1)SCCC2`, the melting point was in the range of 99 to 100 °C.
The compound `Cc1ccc2c(c1)CCC1=C2CCC(=O)N1C` came in with a melting point of 122 °C.
`CC(C)(C)C(=O)CN1C(=O)C(NC(=O)Nc2cccc(C(=O)O)c2)CN(C(=O)C(C)(C)C)c2ccccc21` (centres undefined): the melting point lay in the range of 231 to 233 °C.
As for `Brc1cc2c(nc1-c1ccccc1)OCC2`, the melting point was in the range of 83.5 to 85.5 °C.
As for `Oc1nc2cc(F)c(F)cc2nc1O`, the melting point is more than 310 °C.
As for `COc1cc2ncc(C#N)c(Nc3cc(Cl)ccc3O)c2cc1OC`, the melting point was more than 250 °C.
`Cc1cc(C=Cc2ccc(-c3ccc(C(F)(F)F)cc3)cc2)ccc1OCC(=O)O` had a melting point of 243 to 245 °C.
In turn, `Clc1ccc(Cl)c(-c2csc(NC3=NCCCN3)n2)c1` showed a melting point of 188 to 189 °C.
Compound `COc1cc2c(cc1OC)-c1n[nH]c(Nc3cc(Cl)cc(Cl)c3)c1C2` displayed a melting point of more than 270 °C.
Consider `OC1(Cc2ccccc2)CCN(CCC#Cc2ccccc2)CC1`, for which the melting point was 80 to 82 °C.
In turn, `COc1ccc(C2=C(C=O)c3ccc(OC)cc3CC2)cc1` showed a melting point of 142 °C.
The result for `CSc1cc(C)nc(SC)c1NC(=O)CCCCSc1nc2ccccc2s1` reads 121 to 123 °C; that for `CCOC(=O)/C=C/c1nc(COc2ccc(COc3nn(-c4ccccc4)cc3/C=C\c3csc(CC)n3)cc2OC)c(C)o1`, 95 to 96 °C; that for `Cc1cc2nc(NC(=O)C(C)(C)C)nc(Cl)c2[nH]1`, 162 to 163 °C.
Under `Clc1ccccc1-c1nc(Cl)c2ccccc2n1` stands 127 to 129 °C; under `O=C(O)CCc1cc(C(c2cc(F)ccc2F)S(=O)(=O)c2ccc(Cl)cc2)c(F)cn1` (centres undefined), 89 to 91 °C.
Consider `COC(=O)/C=C1\CCCCC1n1nc(-c2c(-c3ccccc3)nn3ccccc23)ccc1=O` (centres undefined), for which the melting point lay in the range of 156 to 157 °C.
For `CNc1nc(-c2cccc(-c3ccc(C)c(C)c3)c2)c2cc(OC)c(OC)cc2n1`, the melting point lay in the range of 149 to 151 °C.
Consider `Cc1c(Cl)cccc1S(=O)(=O)Nc1nc(CC(=O)Oc2ccccc2)cs1`, for which the melting point turned out to be 189 °C.
Under `Cc1cccc(-c2[nH]cnc2-c2ccc(F)c(Br)c2)n1` stands 205 °C.
The compound `COc1ccc(O)c(C2Sc3ccccc3N(C)C2=O)c1` (single isomer, unassigned; (-)) displayed a melting point of 160 to 162 °C.
For `COc1c(N2CCC(NC3CC3)C(C)C2)c(F)cc2c(=O)c(C(=O)O)cn(C3CC3)c12` (centres undefined), the melting point is 182 to 184 °C.
Under `CCN1CCC(c2c[nH]c3ccc(NS(C)(=O)=O)cc23)CC1` stands 179 to 181 °C; under `CCn1c(COC(=O)NC(=O)c2ccc(Cl)cc2)nc(C(C)C)c1Sc1cc(Cl)cc(Cl)c1`, 82 to 83 °C.
`O=C(O)C1(c2ccc(Nc3nc(N4CCC(O)CC4)nc4c3CCC4)cc2)CCC1` came in with a melting point of 165 to 167 °C.
Turning to `COc1ccc(C(=O)CC(=O)C(F)(F)F)cc1OC`, the melting point lay within 87 to 89 °C.
In the case of `OCc1cccn2cc(C(F)(F)F)nc12`, the melting point lay within 118 to 120 °C.
Take `Sc1nnc(-c2ccc3ncsc3c2)o1`: the melting point was 274 to 275 °C.
`COC(=O)CNC(=O)c1ncccc1O` yielded a melting point of 59 to 61 °C.
Regarding `O=C(c1ccc(OCC2CO2)cc1)c1cccc(C(=O)c2ccc(OCC3CO3)cc2)c1` (centres undefined), the melting point lay in the range of 88 to 93 °C.
In the case of `COc1cc2c(cc1OC)[C@@H]1CN(C)CC[C@@H]1N=C2c1ccc([N+](=O)[O-])cc1` (relative stereo), the melting point lay within 194 to 195 °C.
The compound `CC(C)CC(=O)Nc1cccc(-c2ccnc3c(-c4cccc(C(F)(F)F)c4)cnn23)c1` returned a melting point of 170 to 173 °C.
The compound `O=S(=O)(CC(O)Cn1ccnc1)c1ccccc1` (centres undefined) registered a melting point of 153 to 156 °C.
Consider `Cn1c(C(=O)N[C@H]2CCCC[C@H]2C(=O)N[C@H](C#N)C2CC2)cc2ccccc21`, for which the melting point fell in the range of 242 to 246 °C.
Compound `Cc1cc(C2=CO[C@@](c3cc(Cl)cc(Cl)c3)(C(F)(F)F)C2)ccc1C(=O)NCC(=O)NCC(F)(F)F` registered a melting point of 120 to 155 °C.
Regarding `Nc1cc(N2CC(COc3ccccc3)OC2=O)ccn1` (centres undefined), the melting point lay in the range of 191 to 192 °C.
`CC(=O)Nc1cccc(CNC(=O)[C@H]2N(C(=O)[C@@H](O)[C@H](Cc3ccccc3)NC(=O)c3cccc(O)c3C)CSC2(C)C)c1`: the melting point is 145 to 147 °C.
Under `CCCCCCCCCCCCCCCCNc1ccc(C(=O)NN)cc1` stands 154 to 156 °C; under `CCOC(=O)c1cnn(C)c1S(N)(=O)=O`, 102 to 104 °C.
Consider `CCc1cc(-c2ccc(C(C)=O)cc2)ccc1OC`, for which the melting point is 69 to 72 °C.
Consider `CC(=O)OCC(C)(CC(C)(C)C)C(=O)O` (centres undefined), for which the melting point lay in the range of 89.5 to 90.5 °C.
`O=c1[nH]c2c(O)cccc2n1CCN1CCN(c2cccc(C(F)(F)F)c2)CC1` registered a melting point of 110 °C.
The result for `CCCCNC(=O)ONC(=O)Cc1ccc2c(C(=O)OCC)c(N)c(C(=O)OCC)c-2cc1` reads 178 to 179 °C; that for `Cn1cc(C(=O)NCc2ccc(Cl)cc2)c(=O)c2cc(I)ccc21`, 205 to 208 °C; that for `O=C(O)c1cccc(Oc2ccc(Br)cc2)c1`, 171 to 173 °C.
Take `Nc1sc(-c2ccc(Cl)s2)c(CN(C2CCCCC2)C2CCCCC2)c1C(=O)c1ccc(Cl)cc1`: the melting point was in the range of 195 to 197 °C.
As to `COc1cc(CN[C@H]2CC[C@H](Nc3ccnc4cc(Cl)ccc34)CC2)cc(OC)c1`, the melting point was determined as 150 °C.
In turn, `O=C(O)Cn1c(=O)oc2cc(-c3ccccc3)c(Cl)cc21` displayed a melting point of 200 to 203 °C.
The compound `O=C(O)C(S)=Cc1ccc(C(F)(F)F)o1` came in with a melting point of 158 °C.
In turn, `CCCCNC(=O)OC1c2ncccc2C(=O)N1c1ccc2ccc(Cl)nc2n1` (centres undefined) came in with a melting point of 215 °C.
As to `CSc1c(C=C(C#N)S(C)(=O)=O)c2ccccc2n1Cc1ccccc1`, the melting point was in the range of 125 to 126 °C.
The compound `CCc1cc(-c2ccc(Cl)cc2)nc2c(C(=O)Nc3cccc(S(=O)(=O)NC(C)(C)CO)c3)cnn12` displayed a melting point of 239 to 240 °C.
Compound `O=C(C=NO)Nc1ccccc1F` showed a melting point of 120 °C.
In the case of `[O-][N+](O)=Cc1ccc(Cl)cc1`, the melting point was in the range of 151 to 153 °C.
`NS(=O)(=O)Cc1ccc2oc([N+](=O)[O-])c(-c3ccccc3)c2c1`: the melting point was 203 to 205 °C.
Regarding `COC(=O)CC(O)(c1ccccc1)c1ccc2nc(N)n(S(=O)(=O)C(C)C)c2c1` (centres undefined), the melting point lay in the range of 147 to 149 °C.
Under `CC(C)N1C(=O)C(N=[N+]=[N-])N=C(c2ccccc2)c2ccccc21` (centres undefined) stands 178 to 179 °C.
In the case of `CC(C)OC(=O)c1nsc2ccc(-n3c(=O)cc(C(F)(F)F)n(C)c3=O)cc12`, the melting point is 94 to 97 °C.
In the case of `O=C(Nc1cccnc1NCc1ccc(Cl)cc1)c1ccccn1`, the melting point is 123 to 125 °C.
In turn, `Cc1[nH]c(=O)ccc1-c1ccc2nccn2c1` gave a melting point of 290 to 292 °C.
Under `CCCn1ccc(-c2ccc(C(=O)N3Cc4cccn4Cc4ccccc43)cc2)n1` stands 159 to 161 °C; under `CC(C)(O)Cn1c(CO)nc2c(N)nc3cc(-c4cccc(CO)c4)cnc3c21`, 227 to 229 °C.
The compound `CN1CCN(CC(=O)NN)CC1` gave a melting point of 87 to 89 °C.
Consider `CN(CCCNC(=O)NCCCCOc1cccc(CN2CCCCC2)c1)CCN(Cc1ccc(F)cc1)c1ccccn1`, for which the melting point came to 115 °C.
In turn, `COc1cc(-c2csc(-n3c(C)ccc3C)n2)c(OC)cc1C` had a melting point of 92 to 93 °C.
`Cc1cc2c(-c3ccccc3C)c(C#N)n(C)c(=O)c2cc1C` had a melting point of 217 to 218 °C.
On to `CCOC(=O)c1cn(C2CC2)c2cc(F)c(F)c(C)c2c1=O`, for which the melting point fell in the range of 185 to 187 °C.
On to `CNS(=O)(=O)c1cn(C)c2cc(C(F)(F)F)ccc2c1=O`, for which the melting point was 218 to 219 °C.
For `CCCCN(CCCC)c1nc(-c2ccc(C(C)(C)C)cc2)cs1`, the melting point lay in the range of 48.5 to 49.5 °C.
With `CNC(=O)C1(Oc2ccc3c(c2)c(-c2cc4cccnc4[nH]2)cn3C)CCC1`, the melting point was 249 to 250 °C.
In the case of `C=CCSc1c(O)cc(C)oc1=O`, the melting point was 98 to 98.5 °C.
The compound `CC1c2cccc3c2N(CC3)c2ccccc2N1C(=O)CBr` (centres undefined) gave a melting point of 123 to 125 °C.
The result for `CC(C)(C)OC(=O)N1CCC(c2ncc(-c3cnc(-c4ccccc4)nc3)[nH]2)C1` (centres undefined) reads 219 °C; that for `O=C(O)c1cccc2ccc(-c3ccccc3)nc12`, 159 to 161 °C.
For `O=[N+]([O-])c1ccc2c(c1)CCCCN2`, the melting point was in the range of 73 to 75 °C.
For `CC(C)(C)OC(=O)NC(Cc1ccccc1)C1CC(Cc2ccccc2)=NO1` (centres undefined), the melting point lay in the range of 106 to 107 °C.
`CC(C)c1nc(C(C)C)c(CCCC(=O)O)c(-c2ccc(F)cc2)c1CO` displayed a melting point of 160 °C.
The result for `O=c1[nH]c2ccccc2c(=O)n1Cc1ccc(Cl)c(Cl)c1` reads 274 to 275 °C.

The term melting point denotes the temperature, or range, at which the solid turns liquid.
